Laboratory results reported in PubChem BioAssay (NCI).
Values joined by “and” are separate entries in the source; they are usually repeats but may differ in a detail not shown here. Equal entries are not always repeated.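 Where inhibition never reached the appropriate level, the endpoint shown equals the highest concentration tested. Otherwise, values were interpolated linearly from a five-concentration, 48-hour dose response in 96-well plates. GI50 is the concentration that inhibits growth by half. TGI: concentration producing complete growth inhibition.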

Assays:
Experiment in all cases: growth of human tumour cells (NCI), 48 h
MALME-3M melanoma = test system: MALME-3M melanoma
MDA-MB-231 breast = test system: MDA-MB-231 breast
NCI-H522 lung = test system: NCI-H522 lung
NCI/ADR-RES ovarian = test system: NCI/ADR-RES ovarian

Structure (SMILES)	TGI (MALME-3M melanoma)	TGI (MDA-MB-231 breast)	TGI (NCI-H522 lung)	TGI (NCI/ADR-RES ovarian)	GI50 (NCI-H522 lung)
COc1ccc(N2C(=O)C3c4[nH]c5ccc(F)cc5c4C4CCC(c5ccccc5)CC4C3C2=O)cc1 (stereo not given)	33.3 µM	44 µM	39.1 µM	> 100 µM	
NNC(=O)c1nnn(CCc2ccccc2)c1C(=O)NN	> 100 µM	> 100 µM		> 100 µM	
CCOC(=O)CC(=O)Nc1cccc2[nH]cnc12	> 100 µM	> 100 µM		> 100 µM	
N#Cc1c(-c2ccccc2)[nH]c(=O)n(C2OC(CO)C(O)C(O)C2O)c1=O (stereo not given)		> 100 µM	63.5 µM and > 100 µM	> 100 µM	27.6 µM and > 100 µM
O=c1[nH]nc(Cc2ccccc2)n1CCO	> 100 µM	> 100 µM	> 100 µM	> 100 µM	
C=C1C(=O)O[C@@H]2C=C(C)C3=CC(=O)[C@](C)(C[C@H](OC(=O)/C(C)=C\C)[C@@H]12)O3	7.5 µM	2.24 µM	0.394 µM	3.64 µM	
COC(=O)[C@H](Cc1c[nH]c2ccccc12)NC(=O)c1ccc(CNC(=O)/C=C/c2cccc(Oc3ccccc3)c2)cc1	> 100 µM	> 100 µM		> 100 µM	
NC1=CN2c3ccccc3N(CC(=O)O)C2C=C1 (stereo not given)	> 100 µM	> 100 µM		> 100 µM	
N#Cc1c(-c2ccccc2)c(N=Nc2ccc(Cl)cc2)c(=O)n2c1[nH]c1ccccc12	> 100 µM	> 100 µM	> 100 µM	> 100 µM	
COc1ccc(N2C=Nn3c(nc4sc5c(c4c3=O)CCCC5)C2)cc1	78 µM	40 µM	> 100 µM	> 100 µM	
Cc1ccc(/C(O)=C/c2nc3ccccc3s/c2=N/CS(=O)(=O)c2ccc(C)cc2)cc1	> 10 µM	> 10 µM	> 10 µM	> 10 µM	
CCOP(=O)(OCC)C(N)c1ccc(Cl)cc1 (stereo not given)	> 100 µM	> 100 µM	> 100 µM	> 100 µM	
CC1(C)C2CC(=O)C1(C)C(OCc1ccccc1)C2 (stereo not given)	> 100 µM	> 100 µM	52.5 µM	> 100 µM	
CC1=NN(c2nc(N)nc(CC#N)n2)C(C)(C)C1		> 100 µM		> 100 µM	
CN(C)CCCn1nc(N)c2nc3cc(Cl)ccc3nc21	> 100 µM	> 100 µM	> 100 µM	> 100 µM	
Cc1c2c(OCCN3CCCCC3)nn(C)c(=O)c2c(C)n1-c1ccccc1	35.3 µM	> 100 µM	84.1 µM	> 100 µM	
Clc1ccc(C(SCc2ccccc2)SCc2ccccc2)cc1	> 10 µM	> 10 µM	> 10 µM	> 10 µM	
CCOC(=O)c1sc2[n+](c1C)C(=O)/C(=C/c1ccc([N+](=O)[O-])cc1)S2		> 100 µM		42.5 µM	
FC(F)(F)c1cccc(-c2nc3ccccc3c3c2[C@@]2(N4CCCC4)CCCC[C@@H]32)c1	> 100 µM	49.3 µM	31.8 µM	> 100 µM	
Cc1ccc(/C=N/Nc2ccc3ccccc3n2)s1	41.2 µM	65.9 µM	77.8 µM	> 100 µM	

Structure (SMILES)	TGI (MALME-3M melanoma)	TGI (MDA-MB-231 breast)	TGI (NCI-H522 lung)	TGI (NCI/ADR-RES ovarian)	GI50 (NCI-H522 lung)
COc1c(O)cc2c(c1O)C(=O)/C(=C/c1ccc(O)cc1)CO2	96.4 µM	> 100 µM	33.8 µM	57 µM	
Nc1ccc(C(=O)c2cn(CCN3CCOCC3)c3ccccc23)c2ccccc12	> 100 µM		> 100 µM	65.3 µM	
COC(C)(C)C1(O)CCC(C)CC1=O (stereo not given)	> 100 µM		> 100 µM		
S=C(c1c[nH]c2ccccc12)N1CCN(Cc2ccccc2)CC1	33.7 µM	32.9 µM		36 µM	
Cc1ccc(NC(=O)CSc2nc(=O)[nH]c3nc[nH]c23)cc1	> 100 µM	> 100 µM	> 100 µM	> 100 µM	
CC(=O)OC[C@@H](OC(C)=O)[C@H](OC(C)=O)[C@@H]1OC(C)(C)O[C@@H]1C1SCCCS1	> 100 µM	> 100 µM	> 100 µM		
CCNC(=O)c1c(O)c2ccccc2[nH]c1=O	> 100 µM	> 100 µM	> 100 µM	> 100 µM	
Cc1cn([C@@H]2O[C@H](CO[Si](C)(C)C(C)(C)C)[C@]3(O[C@H]3C(=O)NN)[C@H]2O[Si](C)(C)C(C)(C)C)c(=O)[nH]c1=O	11.8 µM	13.7 µM	5.47 µM	33 µM	
O=[N+]([O-])c1cc2c(cc1/C=N/n1c(CO)nc3ccccc31)OCO2	> 100 µM	> 100 µM		> 100 µM	
O=CC12C3CCC1C2C(=O)C3 (stereo not given)	> 100 µM	> 100 µM	> 100 µM	> 100 µM	
c1c[nH]c(C23C4C5C6C4C2C6C53)n1 (stereo not given)	> 100 µM	> 100 µM	> 100 µM	> 100 µM	
COc1cc2c(cc1OC)C1(COc3cc(O)c(O)c(O)c3C1=O)C2 (stereo not given)	> 50 µM	> 50 µM	> 50 µM	> 50 µM	
CCOC(=O)/C(C#N)=C/c1ccnc2ccccc12	> 100 µM	> 100 µM	> 100 µM	52 µM	
CCN(CC)CCNC(=O)c1cn2c(ccc3sc4ccccc4c(=O)c32)n1	26.9 µM	27.5 µM	25.6 µM	27.8 µM	
CCCCCCCCCCCCCCCC(=O)N(CCCCCCCCCCC(=O)O)CC(O)C(O)C(OC1OC(CO)C(O)C(O)C1O)C(O)CO (stereo not given)	36.3 µM	> 100 µM	> 100 µM	61.1 µM	
O=C(Cc1ccccc1)Nn1c(-c2ccccc2)nc2ccccc2c1=O	> 100 µM	> 100 µM	> 100 µM		
C=C1C(=O)O[C@@H]2C[C@]3(C)CC[C@]4(C)[C@H](CC[C@@H]5[C@@]6(C)CCC(=O)C(C)(C)[C@@H]6CC[C@]54C)[C@H]3[C@H]12	29.7 µM	47.1 µM	23.2 µM	66.7 µM	
CC(=O)N=C1N(/C=C2\C(=O)Oc3ccccc3C2=O)C(=O)/C(=C/c2ccc(Cl)cc2Cl)N1C	> 100 µM	> 100 µM	> 100 µM	> 100 µM	
C/C=C/C1OC(O)(C(C)C(O)[C@H](C)C2OC(=O)/C(OC)=C/C(C)=C/[C@@H](C)[C@@H](O)[C@@H](C)C(O)C(C)C/C(C)=C/C=C/C2OC)C[C@@H](OC2CC(O)C(OC(N)=O)C(C)O2)C1C (stereo not given in full)	0.801 µM		< 0.01 µM	> 68.6 µM	
Oc1ccc(Cl)cc1CN1CCN(Cc2cc(Cl)ccc2O)C1	8.29 µM	10.2 µM	13.2 µM	1.1 µM	

Structure (SMILES)	TGI (MALME-3M melanoma)	TGI (MDA-MB-231 breast)	TGI (NCI-H522 lung)	TGI (NCI/ADR-RES ovarian)	GI50 (NCI-H522 lung)
Cc1cc(S(=O)(=O)Nc2nc(N)nc(N(C)C)n2)c(SCC(=O)O)cc1Cl	> 10 µM		> 10 µM	> 10 µM	
COc1cc2c(=O)cnoc2cc1O	> 100 µM	> 100 µM	> 100 µM	> 100 µM	
Cc1csc(/N=C\c2c(O)c3ccccc3oc2=O)n1	70.3 µM	34.7 µM	> 100 µM	> 100 µM	
O=S(=O)(/N=C(\NO)Nc1ccc(Cl)cc1)c1cccc2nsnc12	46.3 µM	> 100 µM	28.9 µM	> 100 µM	
COc1ccc2cc(CN3CCC(C4CCNCC4)CC3)ccc2c1	3.02 µM	5.08 µM	4.54 µM	21 µM	
FC1C2=C(SC1(F)F)C1CCC2C1 (stereo not given)	> 100 µM	> 100 µM	> 100 µM	> 100 µM	
O=C1CC(c2cccc(Br)c2)n2cccc21 (stereo not given)		> 100 µM	> 100 µM	> 100 µM	
CC1=C(C(=O)c2ccccc2)C23C(=O)N(c4ccccc4)C(=O)C2=C(O)C=CC3(O)N1 (stereo not given)	65.1 µM	> 100 µM	28.9 µM	> 100 µM	
CCOP(=O)(OCC)C(C#N)Cc1ccco1 (stereo not given)	> 10 µM	> 10 µM		> 10 µM	
CN(/N=C/c1ccnc2ccccc12)c1ccc(Cl)cc1[N+](=O)[O-]	> 100 µM	> 100 µM	> 100 µM	> 100 µM	
COc1ccc(C2SCC(=O)N2NC(=O)c2ccc(NC(C)=O)cc2)cc1 (stereo not given)		> 100 µM		> 100 µM	
CC1=Nc2sc3c(c2C2=NCCN12)CCCC3	71.3 µM	71.2 µM	41 µM	54.4 µM	
C=C1C(=O)O[C@H]2[C@@H](O)[C@H](C)CCC[C@]3(C)O[C@H]3CC[C@@]3(C)O[C@@H]3C[C@@H]12		10.8 µM	2.85 µM	19 µM	
CCCCCCCCCCCCCCCCOC[C@@H](COC(c1ccccc1)(c1ccccc1)c1ccccc1)O[P+](=S)OC (stereo not given in full)		5.49 µM	27.5 µM	59.8 µM	
O=c1c(=O)c2c(Br)sc(Br)c2c1=O	31.8 µM		32 µM	> 100 µM	
Clc1ccc(C2Nc3ccccc3C3=NCCN32)cc1 (stereo not given)	32.1 µM	> 100 µM		60.4 µM	
O=C(NCc1cccc2ccccc12)N/N=C\c1ccc(Cl)cc1	> 100 µM		> 100 µM	> 100 µM	
Cc1ccc2nc(-c3ccc(N4C(=O)C(Cl)C4c4ccc(Cl)cc4)cc3)sc2c1 (stereo not given)	> 100 µM	33 µM		39.3 µM	
